From patent publication US8802696B2, “7-([1,2,4]triazolo[1,5-a]pyridin-6-yl)-4-(3,4-dichlorophenyl)-1,2,3,4-tetrahydroisoqu inoli and use thereof” (Albany Molecular Research, Inc., priority 2009, dated 2014)
Where a name gives a salt, the structure may show the parent alone.

Key:
SERT = assay: Ex vivo binding occupancy assay, SERT ([3H]citalopram, brain tissue); details: dose 1 mg/kg, time point 3 hour, ex vivo binding in brain tissue
Text: The general procedure for brain tissue collection and transporter occupancy assessment is briefly described as follows. Mice were sacrificed by asphyxiation in CO2, rats by decapitation and dogs by IV injection of euthanasia solution. For mice and rats, after the brains were removed from the skull, the forebrain tissue (removal of the brainstem and cerebellum) was used for SERT, NET, and DAT occupancy assessment. In dogs, the striatum was dissected for DAT occupancy and the remaining forebrain tissue (without the striatum, brainstem, and cerebellum) was used for SERT and NET occupancy assessment. The brain tissues were frozen in chilled isopentane and stored at −80° C. until homogenization.
The brain tissues were thawed and then homogenized using a polytron homogenizer (Kinematica). Sample aliquots were frozen immediately and stored at −80° C. Protein content was measured for each sample using a Coomassie protein assay kit (Pierce).
On the day of ex vivo binding for occupancy assessment, frozen sample aliquots were thawed and needle homogenized, and 100 μg of the tissue was incubated for SERT, NET, and DAT binding under assay conditions summarized in Table 1. […] Radioligand was measured using a Wallac Microbeta liquid scintillation counter.
The specific binding was calculated by subtracting the value of the non-specific binding from that of the total binding in each sample. […]

hDAT = molecular target: T1, hDAT (Homo sapiens, UniProt Q01959); assay: DAT radioligand binding assay ([125I]RTI-55, HEK-293 membranes); details: recombinant HEK-293 membranes
T1 construct: expressed in transfected cells; host or cells: HEK-293
T1 sequence (Q01959 whole entry): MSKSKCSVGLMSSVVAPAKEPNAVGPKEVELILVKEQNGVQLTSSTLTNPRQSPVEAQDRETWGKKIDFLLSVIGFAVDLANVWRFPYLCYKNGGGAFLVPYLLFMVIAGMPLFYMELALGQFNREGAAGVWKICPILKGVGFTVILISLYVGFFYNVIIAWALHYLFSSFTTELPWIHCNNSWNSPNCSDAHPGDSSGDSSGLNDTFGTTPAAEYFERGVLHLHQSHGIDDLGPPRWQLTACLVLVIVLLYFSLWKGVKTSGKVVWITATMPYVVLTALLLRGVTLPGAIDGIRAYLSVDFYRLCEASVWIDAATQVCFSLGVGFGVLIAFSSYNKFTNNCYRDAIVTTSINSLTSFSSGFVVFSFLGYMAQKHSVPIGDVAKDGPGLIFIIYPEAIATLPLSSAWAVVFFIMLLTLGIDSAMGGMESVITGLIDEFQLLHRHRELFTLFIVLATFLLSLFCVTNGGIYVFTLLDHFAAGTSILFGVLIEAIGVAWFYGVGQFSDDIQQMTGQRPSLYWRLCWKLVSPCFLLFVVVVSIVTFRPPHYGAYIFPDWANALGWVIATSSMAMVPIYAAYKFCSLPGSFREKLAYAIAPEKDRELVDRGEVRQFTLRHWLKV
Method: (§1) Recombinant HEK-293 cells expressing either the hSERT, hDAT, or hNET proteins were harvested from T-175 flasks as follows. The medium was removed from the flasks and the cells rinsed with HBSS without Ca and without Mg. The cells were then incubated for 5-10 minutes in 10 mM Tris-Cl, pH 7.5, 5 mM EDTA before the cells were lifted with a combination of pipetting and scraping, as needed. The cell suspension was collected into centrifuge bottles and homogenized for 30 seconds with a Polytron homogenizer. The suspension was centrifuged for 30 minutes at 32,000×g, 4° C. The supernatant was decanted and the pellet resuspended and homogenized in 50 mM Tris-Cl, pH 7.5, 1 mM EDTA for 10 seconds. […]
(§2) Compounds were dissolved in 100% DMSO at a concentration 100 times the desired highest assay concentration, serially diluted 1:3 in 100% DMSO, and 0.4 μl/well of each solution was dispensed to a Nunc polypropylene, round bottom, 384-well plate. […] The plates were air-dried overnight, 12 μl/well of MicroScint scintillation fluid added, and the plates counted in a Trilux.
(§3) The raw data was normalized to percent inhibition using control wells defining 0% (DMSO only) and 100% (selective inhibitor) inhibition which were run on each plate. […] The radioligand concentration chosen for each assay corresponds to the Kd concentration determined through saturation binding analysis for each assay.

hNET = molecular target: T2, hNET (Homo sapiens, UniProt P23975); assay: NET radioligand binding assay ([3H]nisoxetine, HEK-293 membranes); details: recombinant HEK-293 membranes
T2 construct: expressed in transfected cells; host or cells: HEK-293
T2 sequence (P23975 whole entry): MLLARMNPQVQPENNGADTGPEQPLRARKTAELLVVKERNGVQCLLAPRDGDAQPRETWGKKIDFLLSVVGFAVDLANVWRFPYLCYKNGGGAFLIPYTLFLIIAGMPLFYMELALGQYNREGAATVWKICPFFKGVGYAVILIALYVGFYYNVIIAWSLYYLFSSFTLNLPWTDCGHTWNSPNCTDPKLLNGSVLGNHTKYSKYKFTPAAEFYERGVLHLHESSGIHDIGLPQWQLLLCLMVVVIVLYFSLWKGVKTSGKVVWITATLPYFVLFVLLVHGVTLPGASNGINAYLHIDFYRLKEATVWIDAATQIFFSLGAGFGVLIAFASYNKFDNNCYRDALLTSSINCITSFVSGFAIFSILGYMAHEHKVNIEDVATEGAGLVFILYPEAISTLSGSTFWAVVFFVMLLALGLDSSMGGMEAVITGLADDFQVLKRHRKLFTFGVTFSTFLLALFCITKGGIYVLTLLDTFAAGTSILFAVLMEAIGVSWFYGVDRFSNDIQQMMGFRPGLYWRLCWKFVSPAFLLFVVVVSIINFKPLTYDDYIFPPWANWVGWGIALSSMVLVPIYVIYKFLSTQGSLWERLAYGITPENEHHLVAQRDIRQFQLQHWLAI
Method: as §1
as §2, with “1.0” for “0.4”
as §3

hSERT = molecular target: T3, hSERT (Homo sapiens, UniProt P31645); assay: SERT radioligand binding assay ([125I]RTI-55, HEK-293 membranes); details: recombinant HEK-293 membranes
T3 construct: expressed in transfected cells; host or cells: HEK-293
T3 sequence (P31645 whole entry): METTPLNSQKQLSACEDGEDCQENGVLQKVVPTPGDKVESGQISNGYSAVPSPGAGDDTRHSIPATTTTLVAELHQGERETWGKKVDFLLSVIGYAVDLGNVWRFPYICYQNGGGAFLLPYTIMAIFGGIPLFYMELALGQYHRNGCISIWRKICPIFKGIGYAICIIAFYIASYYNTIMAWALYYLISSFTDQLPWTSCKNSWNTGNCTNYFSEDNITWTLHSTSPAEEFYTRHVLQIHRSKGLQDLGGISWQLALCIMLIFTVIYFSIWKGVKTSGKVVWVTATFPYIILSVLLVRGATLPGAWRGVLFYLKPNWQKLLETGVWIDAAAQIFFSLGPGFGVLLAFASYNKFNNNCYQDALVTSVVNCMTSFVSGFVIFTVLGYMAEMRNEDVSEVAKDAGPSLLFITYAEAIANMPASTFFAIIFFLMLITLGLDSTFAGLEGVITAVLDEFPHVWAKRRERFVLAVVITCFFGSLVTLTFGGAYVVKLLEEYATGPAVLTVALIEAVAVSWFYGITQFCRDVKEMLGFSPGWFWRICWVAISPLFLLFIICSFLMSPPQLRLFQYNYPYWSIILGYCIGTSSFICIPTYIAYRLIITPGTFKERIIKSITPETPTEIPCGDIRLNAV
Method: as §1, with “seconds. The suspension was then centrifuged again for 30 minutes at 32,000×g, 4° C. The supernatant was decanted and the pellet resuspended in 50 mM Tris-Cl, pH 7.5, 1 mM EDTA and briefly homogenized.” for “seconds.”
as §2
The radioligand concentration chosen for each assay corresponds to the Kd concentration determined through saturation binding analysis for each assay.

| SMILES | SERT Occupancy % (SERT) | IC50 (hDAT) | IC50 (hNET) | IC50 (hSERT) | SERT Occupancy % (SERT; L-tartrate salt) |
| --- | --- | --- | --- | --- | --- |
| Clc1ccc(C2CNCc3cc(-c4ccc5ncnn5c4)ccc32)cc1Cl (single isomer, unassigned; (-)) [Example 1 (−)-enantiomer, (−)-7-([1,2,4]triazolo[1,5-a]pyridin-6-yl)-4-(3,4-dichlorophenyl)-1,2,3,4-tetrahydroisoquinoline] | 41% | 105 nM | 4.8 nM | 4.2 nM |  |
| Clc1ccc(C2CNCc3cc(-c4ccc5ncnn5c4)ccc32)cc1Cl (single isomer, unassigned; enantiomer 7) [Example 1 (+)-enantiomer, 7-([1,2,4]triazolo[1,5-a]pyridin-6-yl)-4-(3,4-dichlorophenyl)-1,2,3,4-tetrahydroisoquinoline, L-tartrate salt] |  | 30.8 nM | 26 nM | 1.8 nM | 75% |
